Experiment in all cases: NCI anticancer screen, dose series, 48 h
The test system of assay [1] is A549.
In assay [2] the test system is ACHN.
Assay [3] relates to COLO 205.
Assay [4] concerns DU-145.
The test system of assay [5] is HOP-62.
Assay [6] concerns LOX IMVI.
Assay [7] concerns MDA-MB-435.
Assay [8] has as its system MOLT-4.
The subject of assay [9] is NCI-H460.
The subject of assay [10] is NCI/ADR-RES.
Assay [11] relates to OVCAR-8.
The subject of assay [12] is PC-3.
Assay [13] relates to SF-268.
The test system of assay [14] is SK-MEL-28.
In assay [15] the test system is SNB-75.
The subject of assay [16] is TK-10.
Assay [17] relates to UACC-257.
Assay [18] relates to M14.
The subject of assay [19] is SK-OV-3.

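Values below derive from 48-hour exposures of cells grown in 96-well plates, with endpoints linearly interpolated between the two concentrations bracketing the appropriate inhibition level. Abbreviation: GI50, concentration required for 50% inhibition of growth.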 Active and inactive are the calls of the source. Rule as the data show it: active = GI50 up to about 1.1 µM and inactive = higher. Where only a bound is given, the exact number is not on record here.

As for `CC1(C)C[C@H](O)[C@H](O)[C@]23C(=O)O[C@H](O)[C@H]2C(C=O)=CC[C@@H]13`, the GI50 in assay [1], in assay [2], in assay [3], in assay [4], in assay [5] and in assay [6] was > 100 µM (inactive) in each case. In addition, the GI50 in [7], in assay [8], in assay [9], in assay [10], in assay [11] and in [12] was > 100 µM (inactive) throughout. Further, the GI50 in assay [13], in assay [14], in assay [15], in assay [16] and in [17] was > 100 µM (inactive) in each case.
Take `O=C(Nc1ccccc1)c1cc(S(=O)(=O)NC2=Nc3ccc(Cl)cc3C(c3ccccc3)N2)c(SSc2cc(Cl)c(C(=O)Nc3ccccc3)cc2S(=O)(=O)NC2=Nc3ccc(Cl)cc3C(c3ccccc3)N2)cc1Cl` (stereo not drawn): the GI50 was > 100 µM (inactive) in [1]; > 100 µM (inactive) in assay [2]; > 100 µM (inactive) in assay [3]; > 100 µM (inactive) in assay [4]; > 80.5 µM (inactive) in assay [5]; > 100 µM (inactive) in assay [6]. Moreover, the GI50 is > 57.4 µM (inactive) in assay [18]; > 100 µM (inactive) in [7]; 28.4 µM (inactive) in [8]; > 100 µM (inactive) in assay [9]; > 100 µM (inactive) in assay [10]; > 100 µM (inactive) in [11]. Moreover, the GI50 in assay [12], in assay [13], in [14], in [19], in [15] and in [16] was > 100 µM (inactive) in each case. The GI50 in assay [17] is > 100 µM (inactive).
As to `CCOC(=O)/C1=C(\C)N(c2ccc(C)cc2)C(=O)c2ccccc2C(=O)c2c(O)ccc(O)c21`, the GI50 is 26.6 µM (inactive) in assay [1]; 14.2 µM (inactive) in [2]; 20.1 µM (inactive) in assay [3]; 32.2 µM (inactive) in assay [4]; 20.7 µM (inactive) in assay [5]; 16.7 µM (inactive) in assay [6]. Besides, the GI50 was 19.1 µM (inactive) in assay [18]; 18.5 µM (inactive) in assay [7]; 14.5 µM (inactive) in assay [8]; 23.2 µM (inactive) in assay [9]; 14.9 µM (inactive) in assay [10]; 18.9 µM (inactive) in [11]. The GI50 in [12] was 24.7 µM (inactive); in [13], 27.7 µM (inactive); in [19] it was 35.9 µM (inactive); in [15], 0.634 µM (active); in assay [16], 26.2 µM (inactive); in assay [17], 15.8 µM (inactive).
Turning to `Cc1ccc(-c2nc(N/N=C/c3ccc(O)cc3)c3ccccc3n2)cc1`, the GI50 in assay [1] was 6.14 µM (inactive); in assay [2], 7.21 µM (inactive); in assay [3], 23.4 µM (inactive); in [4] it was 21.8 µM (inactive); in assay [5], 31.9 µM (inactive); in assay [6], 13.2 µM (inactive). Moreover, the GI50 was 5.02 µM (inactive) in [18]; 10.8 µM (inactive) in assay [7]; 20.5 µM (inactive) in [8]; 9.91 µM (inactive) in assay [9]; 20.4 µM (inactive) in assay [10]; 22.9 µM (inactive) in [11]. The GI50 in assay [12] was 9.06 µM (inactive); in [13], 18.8 µM (inactive); in [14], 17.8 µM (inactive); in assay [19] it was 20.3 µM (inactive); in assay [15], 16.8 µM (inactive); in assay [16], 24.3 µM (inactive). Moreover, the GI50 in assay [17] was 4.06 µM (inactive).
Consider `CC1=C(C)CC2C(=O)N(c3cc(C(C)(C)C)ccc3C(C)(C)C)C(=O)C2C1` (stereo not drawn), for which the GI50 in assay [1] was 69.5 µM (inactive); in assay [2] it was 5.38 µM (inactive); in [3], > 100 µM (inactive); in [4] it was > 100 µM (inactive); in assay [5] it was 26.2 µM (inactive); in [6] it was > 100 µM (inactive). The GI50 in assay [18] is 52.1 µM (inactive); in assay [7], > 100 µM (inactive); in [8] it was > 100 µM (inactive); in assay [9], > 100 µM (inactive); in [10] it was > 100 µM (inactive); in [11], > 100 µM (inactive). The GI50 was 62.2 µM (inactive) in assay [12]; 7.91 µM (inactive) in [13]; > 100 µM (inactive) in assay [14]; 58.3 µM (inactive) in [19]; 22.3 µM (inactive) in assay [15]; 66.1 µM (inactive) in assay [16]. Also, the GI50 in assay [17] was > 100 µM (inactive).
For the compound `CCOC(=O)C(NC(=O)OC(C)(C)C)C(=O)OCC`, the GI50 in [1], in [2], in assay [3], in [4], in [5] and in assay [7] was > 100 µM (inactive) throughout. Moreover, the GI50 in [8], in assay [9], in assay [10], in [11], in [12] and in [13] was > 100 µM (inactive) each time. The GI50 in [14], in assay [19], in assay [15], in assay [16] and in assay [17] was > 100 µM (inactive) each time.
With `O=c1oc2ccc([N+](=O)[O-])cc2cc1-c1csc(-c2ccccc2)n1`, the GI50 in assay [1], in [2], in assay [3], in [4], in assay [5] and in assay [6] was > 100 µM (inactive) throughout. Also, the GI50 in assay [18], in [7], in [8], in [9], in assay [10] and in assay [11] was > 100 µM (inactive) in each case. The GI50 in assay [12] is > 100 µM (inactive); in assay [13], > 100 µM (inactive); in assay [14] it was > 100 µM (inactive); in assay [19], > 100 µM (inactive); in assay [15], 0.817 µM (active); in assay [16] it was > 100 µM (inactive). Further, the GI50 in [17] is > 100 µM (inactive).
